Holding throughout (type): cell-based
Assay [1] relates to human lung fibroblasts HFL1. The experiment in a line: Anti-fibrosis activity test: inhibition of proliferation of human lung fibroblasts HFL1 (CCK-8). The conditions noted are these: Homo sapiens, HFL1, 48 h, human lung fibroblasts HFL1, CCK-8, 48 hours. In short, it runs like this:
(§1)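 IC50 values derive from CCK-8 absorbance (450 nm, 2 h reagent incubation) measured after a 48 h exposure to test compounds. Before dosing, cells plated at 2×10^4 cells/mL had attached for 24 h under 5% CO2 at 37° C; triplicate wells per concentration.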

Assay [2] concerns human fibrosarcoma cells HT-1080. The assay is described as follows: Anti-fibrosis activity test: inhibition of proliferation of human fibrosarcoma cells HT-1080 (CCK-8). The following applies: Homo sapiens, HT-1080, 48 h, human fibrosarcoma cells HT-1080, CCK-8, 48 hours. In outline: as §1
The test system of assay [3] is cardiac fibroblast RAT-iCell-C002. The experiment in a line: Anti-fibrosis activity test: inhibition of proliferation of cardiac fibroblast RAT-iCell-C002 (CCK-8). The conditions noted are these: Cardiac fibroblast, 48 h, cardiac fibroblast RAT-iCell-C002, CCK-8, 48 hours. In short, it runs like this:
as §1

Assay [4] concerns human dermal fibroblasts CCC-ESF-1. The experiment in a line: Anti-fibrosis activity test: inhibition of proliferation of human dermal fibroblasts CCC-ESF-1 (CCK-8). The conditions noted are these: Fibroblast; human dermal fibroblasts CCC-ESF-1, CCK-8, 48 hours. In outline:
as §1

Assay [5] concerns NF-κB. The experiment in a line: Immunological activity test: inhibition of NF-κB activity. The conditions noted are these: initial concentration of 30 μM; a/b isomers given as first/second symbol; read-out: IC50 (μM), inhibitory activity against NF-κB. In short, it runs like this: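 Initial screen at 30 μM; parthenolide positive control. IC50s derived from follow-up analysis.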

The test system of assay [6] is mouse macrophages (RAW264.7). The assay is described as follows: Lipopolysaccharide-induced NO secretion in macrophages (Griess). The conditions noted are these: Mus musculus, RAW264.7, 24 h, RAW264.7, LPS 1 μg/ml, a/b isomers given as first/second symbol, read-out: IC50 (μM), inhibition of lipopolysaccharide-induced NO secretion in macrophages. In outline:
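Percent inhibition of NO release was measured by Griess absorbance at 548 nm in supernatants. Cells were mouse RAW264.7 macrophages in 10% FBS DMEM, treated with graded compound concentrations and activated by LPS (1 μg/ml) for 24 h.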

The test system of assay [7] is human embryonic lung fibroblast IMR-90. The experiment in a line: Anti-fibrosis activity test: inhibition of proliferation of human embryonic lung fibroblast IMR-90 (CCK-8). The conditions noted are these: human embryonic lung fibroblast IMR-90, CCK-8, 48 hours. In short, it runs like this:
as §1

The subject of assay [8] is BHK-21 cells. The assay is described as follows: Anti-fibrosis activity test: inhibition of BHK-21 cell proliferation (CCK-8). The conditions noted are these: Mesocricetus auratus, BHK-21, 48 h, CCK-8, 48 hours after administration. In outline: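 BHK-21 cells seeded at 2×10^4 cells/mL, allowed to adhere 24 h at 37° C, 5% CO2, then exposed to compounds at graded concentrations in triplicate for 48 h. CCK-8 added for 2 h and absorbance read at 450 nm; inhibition rate taken as (1−Ai/Ao)×100% and IC50 fitted.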

The test system of assay [9] is human hepatic stellate cells LX-2. The assay is described as follows: Anti-fibrosis activity test: inhibition of proliferation of human hepatic stellate cells LX-2 (CCK-8). The following applies: Homo sapiens, 48 h, human hepatic stellate cells LX-2, CCK-8, 48 hours. In short, it runs like this:
as §1

In the case of `N#Cc1ccc2c(=O)c3c([nH]c2c1)-c1cccn1C3=O` [Compound 512a, 9,10-Dioxo-4,10-dihydro-9H-pyrrolizino[1,2-b]quinoline-6-carbonitrile], the 50% inhibitory concentration (IC50) in [1] lay within 0.05 to 5 mM; in [2] it was 0.05 to 5 mM; in assay [3] it was 0.05 to 5 mM; in assay [4] it was 0.05 to 5 mM; in assay [5], 1 to 10 µM; in assay [6], 1 to 10 µM. The 50% inhibitory concentration (IC50) in assay [7] is 0.05 to 5 mM; in assay [8] it was 0.05 to 5 mM; in [9] it was below 0.05 mM.
Consider `N#Cc1ccc2c(O)c3c(nc2c1)-c1cccn1C3=O` [Compound 512b, 9-hydroxy-10-oxo-10H-pyrrolizino[1,2-b]quinoline-6-carbonitrile], for which the IC50 fell in the range of 0.05 to 5 mM in assay [1]; 0.05 to 5 mM in assay [2]; 0.05 to 5 mM in assay [3]; 0.05 to 5 mM in [4]; 10 to 50 µM in assay [5]; 1 to 10 µM in [6]. Also, the IC50 in assay [7] was 0.05 to 5 mM; in assay [8], 0.05 to 5 mM; in assay [9], below 0.05 mM.
Turning to `O=C1c2c([nH]c3cc(O)ccc3c2=O)-c2cccn21` [Compound 524a, 6-Hydroxy-9H-pyrrolizino[1,2-b]quinoline-9,10(4H)-dione], the IC50 in [1] is 0.05 to 5 mM; in assay [2], 0.05 to 5 mM; in [3] it was 0.05 to 5 mM; in [4], 0.05 to 5 mM; in [5], 0.1 to 1 µM; in assay [6], 0.1 to 1 µM. Also, the IC50 in assay [7], in [8] and in assay [9] was 0.05 to 5 mM in each case.
For the compound `O=C1c2c(nc3cc(O)ccc3c2O)-c2cccn21` [Compound 524b, 6,9-dihydroxy-10H-pyrrolizino[1,2-b]quinolin-10-one], the IC50 in assay [1] fell in the range of 0.05 to 5 mM; in assay [2], 0.05 to 5 mM; in assay [3], 0.05 to 5 mM; in [4], 0.05 to 5 mM; in [5] it was 10 to 50 µM; in [6] it was 1 to 10 µM. For the same compound, the concentration for half-maximal inhibition (IC50) in [7], in assay [8] and in [9] was 0.05 to 5 mM each time.
On to `O=C1c2c([nH]c3cc(C(F)(F)F)ccc3c2=O)-c2cccn21` [Compound 536a, 6-(Trifluoromethyl)-9H-pyrrolizino[1,2-b]quinoline-9,10(4H)-dione], for which the IC50 in assay [1] fell in the range of 0.05 to 5 mM; in [2] it was 0.05 to 5 mM; in assay [3] it was 0.05 to 5 mM; in [4], 0.05 to 5 mM; in assay [5], 1 to 10 µM; in [6] it was 1 to 10 µM. Further, the IC50 in assay [7], in assay [8] and in assay [9] was 0.05 to 5 mM in each case.
Turning to `O=C1c2c(nc3cc(C(F)(F)F)ccc3c2O)-c2cccn21` [Compound 536b, 9-hydroxy-6-(trifluoromethyl)-10H-pyrrolizino[1,2-b]quinolin-10-one], the IC50 in assay [1] lay in the range of 0.05 to 5 mM; in assay [2], 0.05 to 5 mM; in assay [3], 0.05 to 5 mM; in assay [4], 0.05 to 5 mM; in assay [5] it was 1 to 10 µM; in assay [6], 1 to 10 µM. Further, the IC50 in [7], in [8] and in [9] was 0.05 to 5 mM in each case.
With `O=C1c2c([nH]c3cc(OC(F)(F)F)ccc3c2=O)-c2cccn21` [Compound 548a, 6-(Trifluoromethoxy)-9H-pyrrolizino[1,2-b]quinoline-9,10(4H)-dione], the half-maximal inhibitory concentration (IC50) fell in the range of 0.05 to 5 mM in [1]; 0.05 to 5 mM in [2]; 0.05 to 5 mM in assay [3]; 0.05 to 5 mM in assay [4]; 0.1 to 1 µM in [5]; 10 to 50 µM in [6]. Moreover, the half-maximal inhibitory concentration (IC50) in [7] is 0.05 to 5 mM; in assay [8], 0.05 to 5 mM; in assay [9] it was below 0.05 mM.
With `O=C1c2c(nc3cc(OC(F)(F)F)ccc3c2O)-c2cccn21` [Compound 548b, 9-hydroxy-6-trifluoromethoxy-10H-pyrrolizino[1,2-b]quinolin-10-one], the 50% inhibitory concentration (IC50) in assay [1] was 0.05 to 5 mM; in assay [2], 0.05 to 5 mM; in [3], 0.05 to 5 mM; in [4], 0.05 to 5 mM; in assay [5], 1 to 10 µM; in assay [6], 1 to 10 µM. Moreover, the half-maximal inhibitory concentration (IC50) in assay [7], in assay [8] and in assay [9] was 0.05 to 5 mM throughout.
On to `COc1ccc2c(=O)c3c([nH]c2c1)-c1cccn1C3=O` [Compound 560a, 6-Methoxy-9H-pyrrolizino[1,2-b]quinoline-9,10(4H)-dione], for which the IC50 in assay [1] is 0.05 to 5 mM; in assay [2], 0.05 to 5 mM; in assay [3], 0.05 to 5 mM; in assay [4], 0.05 to 5 mM; in assay [5], 1 to 10 µM; in [6], 10 to 50 µM. Further, the IC50 in [7], in assay [8] and in assay [9] was 0.05 to 5 mM throughout.
In the case of `COc1ccc2c(O)c3c(nc2c1)-c1cccn1C3=O` [Compound 560b, 9-hydroxy-6-methoxy-10H-pyrrolizino[1,2-b]quinolin-10-one], the IC50 in assay [1] fell in the range of 0.05 to 5 mM; in assay [2], 0.05 to 5 mM; in [3], 0.05 to 5 mM; in assay [4], 0.05 to 5 mM; in assay [5], 1 to 10 µM; in [6], 1 to 10 µM. Further, the concentration for half-maximal inhibition (IC50) in assay [7], in [8] and in assay [9] was 0.05 to 5 mM in each case.
`O=C1c2c(n(Cc3ccc(F)cc3Cl)c3ccccc3c2=O)-c2cccn21` [Compound 572a, 4-(2-Chloro-4-fluorobenzyl)-9H-pyrrolizino[1,2-b]quinoline-9,10(4H)-dione]: the half-inhibitory concentration (IC50) in [1] was in the range of 0.05 to 5 mM; in assay [2], 0.05 to 5 mM; in assay [3], 0.05 to 5 mM; in assay [4], 0.05 to 5 mM; in [5], 0.001 to 0.1 µM; in assay [6], 0.1 to 1 µM. Moreover, the IC50 in assay [7], in assay [8] and in assay [9] was 0.05 to 5 mM in each case.
On to `O=C1c2c(nc3ccccc3c2OCc2ccc(F)cc2Cl)-c2cccn21` [Compound 572b, 9-((2-chloro-4-fluorobenzyl)oxy)-10H-pyrrolizino[1,2-b]quinolin-10-one], for which the IC50 in assay [1] lay in the range of 0.05 to 5 mM; in assay [2], 0.05 to 5 mM; in assay [3], 0.05 to 5 mM; in assay [4], 0.05 to 5 mM; in assay [5], 1 to 10 µM; in [6], 1 to 10 µM. The half-inhibitory concentration (IC50) in assay [7], in [8] and in [9] was 0.05 to 5 mM throughout.
Regarding `O=C1c2c(n(Cc3cc(F)ccc3F)c3ccccc3c2=O)-c2cccn21` [Compound 573a, 4-(2,5-Difluorobenzyl)-9H-pyrrolizino[1,2-b]quinoline-9,10(4H)-dione], the IC50 in [1] fell in the range of 0.05 to 5 mM; in assay [2] it was 0.05 to 5 mM; in assay [3], 0.05 to 5 mM; in assay [4], 0.05 to 5 mM; in assay [5], 1 to 10 µM; in [6], 1 to 10 µM. In addition, the results for the IC50 in assay [7], in [8] and in assay [9] were below 0.05 mM, 0.05 to 5 mM and 0.05 to 5 mM, respectively.
Consider `O=C1c2c(nc3ccccc3c2OCc2cc(F)ccc2F)-c2cccn21` [Compound 573b, 9-((2,5-difluorobenzyl)oxy)-10H-pyrrolizino[1,2-b]quinolin-10-one], for which the IC50 in [1] is 0.05 to 5 mM; in [2], 0.05 to 5 mM; in assay [3], below 0.05 mM; in assay [4] it was 0.05 to 5 mM; in assay [5], 1 to 10 µM; in assay [6] it was 0.1 to 1 µM. Besides, the IC50 in assay [7], in assay [8] and in [9] was 0.05 to 5 mM throughout.
For `Cc1ccccc1Cn1c2c(c(=O)c3ccccc31)C(=O)n1cccc1-2` [Compound 574a, 4-(2-Methylbenzyl)-9H-pyrrolizino[1,2-b]quinoline-9,10(4H)-dione], the IC50 in [1] lay within 0.05 to 5 mM; in assay [2] it was 0.05 to 5 mM; in [3], 0.05 to 5 mM; in assay [4], 0.05 to 5 mM; in assay [5], 1 to 10 µM; in assay [6], 1 to 10 µM. For the same compound, the 50% inhibitory concentration (IC50) in assay [7], in assay [8] and in assay [9] was 0.05 to 5 mM each time.
On to `Cc1ccccc1COc1c2c(nc3ccccc13)-c1cccn1C2=O` [Compound 574b, 9-((2-methylbenzyl)oxy)-10H-pyrrolizino[1,2-b]quinolin-10-one], for which the IC50 in assay [1] is 0.05 to 5 mM; in assay [2], 0.05 to 5 mM; in [3], 0.05 to 5 mM; in assay [4], 0.05 to 5 mM; in assay [5] it was 1 to 10 µM; in assay [6], 10 to 50 µM. Moreover, the IC50 in assay [7], in assay [8] and in [9] was 0.05 to 5 mM in each case.

(Values after US11040028B2, “Penicinotam derivative, preparation method and use thereof” (OCEAN UNIVERSITY OF CHINA, priority 2017, dated 2021).)
